Data on 26 compounds can be found in patent US10004701B2, “Methods and compositions for treating infection” (UNIVERSITY OF ROCHESTER, priority 2012, dated 2018).

Values after ≈ are worked out from the molar mass of the structure shown. Like-named read-outs stand apart in the source and are kept apart here.

The subject of one assay is E. faecium. Briefly: AK assay 384-well format, Prestwick library screening. It is filed as cell-based, Enterococcus faecium.
Assay [1] has as its system Enterococcus faecium 824-05. Description: MIC testing. Type of assay: cell-based. The note with it: 82405; Enterococcus faecium 824-05; read-out: MIC.
Another assay concerns S. aureus. Briefly: Minimum Inhibitory Concentration (MIC) testing, terfenadine study. It is filed as cell-based. The note with it: Staphylococcus aureus, 16 h.
The next assay addresses T1, S. aureus DNA gyrase (Staphylococcus aureus, UniProt P0A0K8+P20831).
T1 construct: purchased TopoGEN
Briefly: S. aureus DNA gyrase supercoiling assay (TopoGEN). Type of assay: biochemical. As to the method:
Reactions were incubated at 37° C. for 30 min and then stopped by the addition of 10% SDS, filtered through 0.025 μm Millipore membrane filters in a 10 mM Tris-HCl buffer (pH 8), and electrophoresed in a 1% agarose TAE gel. Gels were stained with 0.5 μg/ml ethidium bromide and images were analyzed using densitometry (Image J, NIH).

For the next assay, the system named is E. coli. Briefly: AK assay 384-well format, Prestwick library screening. It is filed as cell-based, Escherichia coli. The note with it: Escherichia coli, 3 h; planktonic E. coli; 50 μM final drug concentration; cutoff for positive-scoring molecules 3-fold increase; read-out: AK-based Prestwick Library Screening Results, E. coli (increase in extracellular AK activity).

Assay [2] deals with Pseudomonas aeruginosa PA01. Description: MIC testing. Type of assay: cell-based.
The next assay has as its system E. cloacae. Description: AK assay 384-well format, Prestwick library screening. It is filed as cell-based, Enterobacter cloacae. The note with it: Enterobacter cloacae, 3 h; planktonic E. cloacae; 50 μM final drug concentration; cutoff for positive-scoring molecules 3-fold increase; read-out: AK-based Prestwick Library Screening Results, E. cloacae (increase in extracellular AK activity).

For assay [3], the system named is S. aureus strain USA300-0114. The assay is described as above. Type of assay: cell-based, Staphylococcus aureus. The note with it: Staphylococcus aureus, USA300, 3 h; planktonic S. aureus; 50 μM final drug concentration; cutoff for positive-scoring molecules 3-fold increase; read-out: AK-based Prestwick Library Screening Results, S. aureus (increase in extracellular AK activity).

The test system of assay [4] is A. baumannii strain 98-37-09. The assay is described as above. Type of assay: cell-based, Acinetobacter baumannii. The note with it: Acinetobacter baumannii, 983709, 3 h; planktonic A. baumannii; 50 μM final drug concentration; cutoff for positive-scoring molecules 3-fold increase; read-out: AK-based Prestwick Library Screening Results, A. baumannii (increase in extracellular AK activity).

The next assay relates to P. aeruginosa. The assay is described as above. Type of assay: cell-based, Pseudomonas aeruginosa.
The next assay relates to K. pneumoniae. The assay is described as above. It is filed as cell-based, Klebsiella pneumoniae. The note with it: Klebsiella pneumoniae, 3 h; planktonic K. pneumoniae; 50 μM final drug concentration; cutoff for positive-scoring molecules 3-fold increase; read-out: AK-based Prestwick Library Screening Results, K. pneumoniae (increase in extracellular AK activity).

T1 sequence (P0A0K8 whole entry): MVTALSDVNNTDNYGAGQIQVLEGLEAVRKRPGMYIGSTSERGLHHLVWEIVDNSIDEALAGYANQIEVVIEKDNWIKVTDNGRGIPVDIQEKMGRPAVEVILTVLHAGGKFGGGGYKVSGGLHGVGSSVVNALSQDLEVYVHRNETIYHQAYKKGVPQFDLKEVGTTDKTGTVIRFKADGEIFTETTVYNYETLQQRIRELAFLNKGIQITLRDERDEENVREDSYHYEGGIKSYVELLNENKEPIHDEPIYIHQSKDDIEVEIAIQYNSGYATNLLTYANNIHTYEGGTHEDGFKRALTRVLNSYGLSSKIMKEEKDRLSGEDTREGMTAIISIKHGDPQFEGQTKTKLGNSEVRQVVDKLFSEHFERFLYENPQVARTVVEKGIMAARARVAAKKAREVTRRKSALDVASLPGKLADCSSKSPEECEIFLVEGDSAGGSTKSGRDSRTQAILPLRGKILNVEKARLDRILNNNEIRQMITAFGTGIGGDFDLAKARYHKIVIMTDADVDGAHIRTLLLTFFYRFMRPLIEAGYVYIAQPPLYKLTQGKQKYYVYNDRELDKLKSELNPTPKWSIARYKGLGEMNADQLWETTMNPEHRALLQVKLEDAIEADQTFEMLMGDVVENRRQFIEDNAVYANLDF
T1 sequence (P20831 whole entry): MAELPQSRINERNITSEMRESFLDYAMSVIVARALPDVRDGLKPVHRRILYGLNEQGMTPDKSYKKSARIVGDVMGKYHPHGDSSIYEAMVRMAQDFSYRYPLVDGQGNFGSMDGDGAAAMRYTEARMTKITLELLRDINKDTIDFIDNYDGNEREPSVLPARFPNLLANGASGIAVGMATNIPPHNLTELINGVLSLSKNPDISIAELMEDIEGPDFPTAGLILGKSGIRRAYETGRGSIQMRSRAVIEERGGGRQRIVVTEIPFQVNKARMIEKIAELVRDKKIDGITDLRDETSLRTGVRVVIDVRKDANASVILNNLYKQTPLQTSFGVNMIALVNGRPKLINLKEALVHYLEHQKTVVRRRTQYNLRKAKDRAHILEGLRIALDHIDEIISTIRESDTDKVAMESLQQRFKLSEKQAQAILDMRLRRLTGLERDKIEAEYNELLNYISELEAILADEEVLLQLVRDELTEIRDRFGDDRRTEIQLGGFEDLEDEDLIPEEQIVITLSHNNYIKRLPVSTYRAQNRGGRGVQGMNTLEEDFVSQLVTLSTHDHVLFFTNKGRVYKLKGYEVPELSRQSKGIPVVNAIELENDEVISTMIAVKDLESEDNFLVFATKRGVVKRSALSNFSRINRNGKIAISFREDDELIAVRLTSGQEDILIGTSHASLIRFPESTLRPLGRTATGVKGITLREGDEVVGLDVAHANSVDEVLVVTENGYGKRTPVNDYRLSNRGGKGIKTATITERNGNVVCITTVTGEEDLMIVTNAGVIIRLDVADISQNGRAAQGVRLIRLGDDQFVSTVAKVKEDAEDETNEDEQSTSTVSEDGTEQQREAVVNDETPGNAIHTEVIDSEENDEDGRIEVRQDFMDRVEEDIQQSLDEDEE

Take `CCN(CC)CCOc1ccc(C(=C(Cl)c2ccccc2)c2ccccc2)cc1` [Clomiphene, clomiphene, reference compound]: the “activity in AK Prestwick screen” value in the assay on E. faecium (E. faecium, 50 μM, cutoff 3-fold increase in AK) is listed as “identified”. The minimum inhibitory concentration (MIC) in [1] is 8 µg/mL (≈ 19.7 µM).
Turning to `OC(CCCN1CCC(C(O)(c2ccccc2)c2ccccc2)CC1)c1ccc(Br)cc1` (stereo not drawn) [Compound 9, 1-(4-bromophenyl)-4-(4-(hydroxydiphenylmethyl)piperidin-1-yl)butan-1-ol], the MIC against S. aureus was 32 µg/mL (≈ 64.7 µM). The IC50 on S. aureus DNA gyrase is over 1010 µM.
The corresponding values for `CC(C)(C)c1ccc(CCCCN2CCC(C(O)(c3ccccc3)c3ccccc3)CC2)cc1` [Compound 10, (1-(4-(4-(tert-butyl)phenyl)butyl)piperidin-4-yl)diphenylmethanol] are 8 µg/mL (≈ 17.6 µM) and 205 µM.
Compound `Cc1ccc(C(O)CCCN2CCC(C(O)(c3ccccc3)c3ccccc3)CC2)cc1` (stereo not drawn) [Compound 14, 4-(4-(hydroxydiphenylmethyl)piperidin-1-yl)-1-(p-tolyl)butan-1-ol] showed a minimal inhibitory concentration (MIC) in the assay with S. aureus of 128 µg/mL (≈ 298 µM). At S. aureus DNA gyrase, the IC50 was over 1160 µM.
Taken in the same sequence, the figures for `COC(=O)c1ccc(C(O)CCCN2CCC(C(O)(c3ccccc3)c3ccccc3)CC2)cc1` (stereo not drawn) [Compound 18, Methyl 4-(1-hydroxy-4-(4-(hydroxydiphenylmethyl)piperidin-1-yl)butyl)benzoate] were 256 µg/mL (≈ 541 µM) and 929 µM.
Compound `O=C(O)c1ccc(C(O)CCCN2CCC(C(O)(c3ccccc3)c3ccccc3)CC2)cc1` (stereo not drawn) [Compound 19, 4-(1-hydroxy-4-(4-(hydroxydiphenylmethyl)piperidin-1-yl)butyl)benzoic acid] showed an MIC with S. aureus of over 256 µg/mL. Moreover, the IC50 on S. aureus DNA gyrase is over 1090 µM.
Taken in the same sequence, the figures for `CC(C)(C)c1ccc(C(=O)CCN2CCC(C(O)(c3ccccc3)c3ccccc3)CC2)cc1` [Compound 21, 1-(4-(tert-butyl)phenyl)-3-(4-(hydroxydiphenylmethyl)piperidin-1-yl)propan-1-one] were 32 µg/mL (≈ 70.2 µM) and 198 µM.
The corresponding values for `CC(C)(C)c1ccc(CCCN2CCC(C(O)(c3ccccc3)c3ccccc3)CC2)cc1` [Compound 22, (1-(3-(4-(Tert-butyl)phenyl)propyl)piperidin-4-yl)diphenylmethanol] are 8 µg/mL (≈ 18.1 µM) and 211 µM.
In the assay on S. aureus, `CC(C)(C)c1ccc(CCN2CCC(C(O)(c3ccccc3)c3ccccc3)CC2)cc1` [Compound 23, (1-(4-(Tert-butyl)phenethyl)piperidin-4-yl)diphenylmethanol] returned a minimal inhibitory concentration (MIC) of 8 µg/mL (≈ 18.7 µM). At S. aureus DNA gyrase, this compound showed an IC50 of 218 µM.
Taken in the same sequence, the figures for `OC(CCCN1CCC(C(O)(c2ccccc2)c2ccccc2)CC1)c1ccc(-c2ccccc2)cc1` (stereo not drawn) [Compound 25, 1-([1,1′-biphenyl]-4-yl)-4-(4-(hydroxydiphenylmethyl)piperidin-1-yl)butan-1-ol] were 8 µg/mL (≈ 16.3 µM) and 27.1 µM.
Taken in the same sequence, the figures for `CC(C)(C)c1ccc(C(=O)N2CCC(C(O)(c3ccccc3)c3ccccc3)CC2)cc1` [Compound 27, (4-(tert-butyl)phenyl)(4-(hydroxydiphenylmethyl)piperidin-1-yl)methanone] were over 256 µg/mL and 218 µM.
The corresponding values for `COc1ccc(CCN2CCC(C(O)(c3ccccc3)c3ccccc3)CC2)cc1` [Compound 28, (1-(4-methoxyphenethyl)piperidin-4-yl)diphenylmethanol] are 256 µg/mL (≈ 638 µM) and over 829 µM.
On to `O=[N+]([O-])c1ccc(CCN2CCC(C(O)(c3ccccc3)c3ccccc3)CC2)cc1` [Compound 29, (1-(4-nitrophenethyl)piperidin-4-yl)diphenylmethanol], for which the MIC against S. aureus turned out to be 64 µg/mL (≈ 154 µM). Further, the IC50 on S. aureus DNA gyrase was 632 µM.
The corresponding values for `OC(c1ccccc1)(c1ccccc1)C1CCN(CCc2ccc(Br)cc2)CC1` [Compound 30, (1-(4-bromophenethyl)piperidin-4-yl)diphenylmethanol] are 16 µg/mL (≈ 35.5 µM) and 548 µM.
In the case of `OC(c1ccccc1)(c1ccccc1)C1CCN(CCc2ccc(-c3ccccc3)cc2)CC1` [Compound 32, (1-(2-([1,1′-biphenyl]-4-yl)ethyl)piperidin-4-yl)diphenylmethanol], the MIC with S. aureus (S. aureus, MHB, strain not given, read-out: MIC) was found to be 8 µg/mL (≈ 17.9 µM). Further, it took 179 µM to reach half-maximal inhibition at S. aureus DNA gyrase (IC50).
Turning to `OC(c1ccccc1)(c1ccccc1)C1CCN(CCc2ccc(-c3ccncc3)cc2)CC1` [Compound 33, Diphenyl(1-(4-(pyridin-4-yl)phenethyl)piperidin-4-yl)methanol], the MIC in the assay on S. aureus turned out to be 32 µg/mL (≈ 71.3 µM). At S. aureus DNA gyrase, half-maximal inhibition (IC50) required 208 µM.
The corresponding values for `Nc1ccc(CCN2CCC(C(O)(c3ccccc3)c3ccccc3)CC2)cc1` [Compound 34, (1-(4-aminophenethyl)piperidin-4-yl)diphenylmethanol] are 256 µg/mL (≈ 662 µM) and 241 µM.
Compound `OC(c1ccccc1)(c1ccccc1)C1CCN(CCc2ccc(-c3cccnc3)cc2)CC1` [Compound 35, Diphenyl(1-(4-(pyridin-3-yl)phenethyl)piperidin-4-yl)methanol] registered an MIC with S. aureus of 32 µg/mL (≈ 71.3 µM). The same compound showed a 50% inhibitory concentration (IC50) against S. aureus DNA gyrase of 557 µM.
Taken in the same sequence, the figures for `CN(C)c1ccc(CCN2CCC(C(O)(c3ccccc3)c3ccccc3)CC2)cc1` [Compound 36, (1-(4-(Dimethylamino)phenethyl)piperidin-4-yl)diphenylmethanol] were 256 µg/mL (≈ 617 µM) and over 803 µM.
Turning to `OC(c1ccccc1)(c1ccccc1)C1CCN(CCc2ccc(F)cc2)CC1` [Compound 38, (1-(4-Fluorophenethyl)piperidin-4-yl)diphenylmethanol], the minimal inhibitory concentration (MIC) against S. aureus is 128 µg/mL (≈ 329 µM). The same compound had an IC50 at S. aureus DNA gyrase of over 855 µM.
In turn, `CC(C)(C)c1cccc(CCN2CCC(C(O)(c3ccccc3)c3ccccc3)CC2)c1` [Compound 39, (1-(3-(Tert-butyl)phenethyl)piperidin-4-yl)diphenylmethanol] displayed an MIC in the assay with S. aureus of 16 µg/mL (≈ 37.4 µM). Moreover, the IC50 on S. aureus DNA gyrase was 218 µM.
Taken in the same sequence, the figures for `CC(C)(C)c1ccc(C(O)CCCN2CCC(Cc3ccccc3)CC2)cc1` (stereo not drawn) [Compound 40, 4-(4-Benzylpiperidin-1-yl)-1-(4-(tert-butyl)phenyl)butan-1-ol] were 64 µg/mL (≈ 169 µM) and over 877 µM.
The corresponding values for `CC(C)(C)c1ccc(NCCCN2CCC(C(O)(c3ccccc3)c3ccccc3)CC2)cc1` [Compound 41, (1-(3-((4-(Tert-butyl)phenyl)amino)propyl)piperidin-4-yl)diphenylmethanol] are 8 µg/mL (≈ 17.5 µM) and 423 µM.
For the compound `CC(C)(C)c1ccc(CCN2CCC(C(O)(c3ccccc3)c3ccccc3)CC2)cn1` [Compound 43, (1-(2-(6-(Tert-butyl)pyridin-3-yl)ethyl)piperidin-4-yl)diphenylmethanol], the MIC against S. aureus was found to be 64 µg/mL (≈ 149 µM). Further, the IC50 against S. aureus DNA gyrase is over 777 µM.
The corresponding values for `OC(c1ccccc1)(c1ccccc1)C1CCN(CCc2ccc(Cl)cc2)CC1` [Compound 44, (1-(4-Chlorophenethyl)piperidin-4-yl)diphenylmethanol] are 32 µg/mL (≈ 78.8 µM) and 640 µM.
Consider `CCCCCCCCNC(C)C(O)c1ccc(SC(C)C)cc1` (stereo not drawn) [Suloctidil, suloctidil, reference compound], for which the fold induction at 50 µM with E. coli was determined as 1.9; in the assay on E. faecium (Enterococcus faecium, 3 h, planktonic E. faecium, 50 μM final drug concentration, cutoff for positive-scoring molecules 3-fold increase, read-out: AK-based Prestwick Library Screening Results, E. faecium (increase in extracellular AK activity)) it was 5.4; in the assay with E. cloacae, 0.9; in [3] it was 2; in assay [4], 4.1; in the assay on P. aeruginosa (Pseudomonas aeruginosa, 3 h, planktonic P. aeruginosa, 50 μM final drug concentration, cutoff for positive-scoring molecules 3-fold increase, read-out: AK-based Prestwick Library Screening Results, P. aeruginosa (increase in extracellular AK activity)), 6.8. Besides, in the assay on K. pneumoniae, the fold induction at 50 µM worked out at 2.5. Moreover, the MIC entry in assay [2] was “did not elicit an antimicrobial response”; in assay [1], 8 µg/mL (≈ 23.7 µM). Moreover, the “activity in primary and confirmatory AK screens” value with P. aeruginosa (P. aeruginosa, 50 μM, cutoff 3-fold increase in AK) is “active”.
